The data set is described as follows: solvent given as SMILES.

The structures appear in SMILES notation.

Data on 45 molecules can be found in the Deep4Chem optical property database.

As to `c1ccc2c(c1)oc1nc3oc4ccc(-n5c6ccccc6c6ccccc65)cc4c3cc12`, the absorption maximum (in ClC(Cl)Cl) is on record as 346 nm.
With `COc1cc(/C=C/C(=O)O)ccc1O`, the absorption maximum (in O) stood at 287 nm.
With `CCC[n+]1ccc(/C=C/c2ccc(N(C)C)cc2)cc1`, the absorption maximum runs as follows: (in C1COCCO1) 463 nm; (in CC(C)O) 485 nm; (in CCCCO) 490 nm; (in CCCO) 487 nm; (in CCO) 484 nm; (in CO) 479 nm. Further, the absorption maximum runs as follows: (in CS(C)=O) 476 nm; (in ClC(Cl)Cl) 496 nm; (in ClCCl) 513 nm; (in c1ccccc1) 477 nm.
`C=C(C)C(CN1C(=O)c2cccc3cccc(c23)C1=O)OO` (centres undefined) showed an absorption maximum (in CCO) of 332 nm.
`COCc1ncc(-c2c3ccccc3c(-c3cnc(COC)nc3)c3ccccc23)cn1` gave an absorption maximum (in CCO) of 395 nm and an absorption maximum (in ClCCl) of 397 nm.
Consider `Brc1ccc(-c2nc3sc4ccccc4c3s2)cc1`, for which, for the setting “in CS(C)=O”, the absorption maximum worked out at 353 nm.
On to `CCCC1=Cc2nc1ccc1[nH]c(cc1CCC)c1nc(c(NC(=O)CCCC(=O)O)cc3[nH]c2cc3CCC)C(CCC)=C1`, for which the absorption maximum (in ClCCl) was 636 nm.
On the same count and under the same terms, the value for `COC(=O)c1c(-c2cc3ccccc3oc2=O)nn(-c2cccc(F)c2)c1C(=O)OC` was 323 nm; that for `CN(C)c1ccc(C#CC2=C3CCc4ccccc4C3=[O+][B-](F)(F)O2)cc1` was 514 nm.
`Nc1ccc2cc3ccccc3cc2c1` had an absorption maximum (in C1CCCCC1) of 397.61 nm.
`CCc1cccc(CC)c1-c1c2ccccc2c(C#Cc2ccccc2)c2cc3ccccc3cc12` came in with an absorption maximum (in ClCCl) of 523 nm.
For `N#Cc1nc2c3ccc(-c4ccc(-n5c6ccccc6c6ccccc65)cc4)cc3c3cc(-c4ccc(-n5c6ccccc6c6ccccc65)cc4)ccc3c2nc1C#N`, the absorption maximum (in Cc1ccccc1) amounted to 418 nm.
For the setting “in ClCCl”, `Cc1ccc(-n2c(-c3ccc(N(c4ccc(-c5ccc(N(c6ccc(-c7nc8c9ccccc9c9ccccc9c8n7-c7ccc(C)cc7)cc6)c6ccc(-c7nc8c9ccccc9c9ccccc9c8n7-c7ccc(C)cc7)cc6)cc5)cc4)c4ccc(-c5nc6c7ccccc7c7ccccc7c6n5-c5ccc(C)cc5)cc4)cc3)nc3c4ccccc4c4ccccc4c32)cc1` had an absorption maximum of 376 nm.
Turning to `CC(C)(C)c1ccc(-c2nc3c4ccccc4c4ccccc4c3n2-c2ccc(C(C)(C)C)cc2)cc1`, the absorption maximum is on record as 314 nm (in C1CCOC1); 315 nm (in C1COCCO1); 310 nm (in CC#N); 315 nm (in CCCCCC); 315 nm (in CCCCOCCCC); 316 nm (in CCN(CC)CC). The absorption maximum (in CCOC(C)=O) is listed as 313 nm; the absorption maximum (in CCOCC) was determined as 313 nm; the absorption maximum (in CN(C)C=O) is 313 nm; the absorption maximum (in Cc1ccccc1) turned out to be 316 nm; the absorption maximum (in ClC=C(Cl)Cl) is given as 316 nm; the absorption maximum (in ClCCl) was found to be 313 nm.
With `CN(C)/C=N\c1ccc2c3c(cccc13)C(=O)c1ccccc1-2`, the absorption maximum amounted to 459 nm (in C1CCOC1); 437 nm (in CCCCCC); 471 nm (in CCO); 459 nm (in CCOC(C)=O); 479 nm (in CN(C)C=O); 470 nm (in CO). For the same molecule, the absorption maximum is 454 nm (in Cc1ccccc1); 448 nm (in ClC(Cl)(Cl)Cl); 464 nm (in ClC(Cl)Cl); 467 nm (in ClCCl); 456 nm (in c1ccccc1).
In the case of `Cc1ccc(-n2cccc2)cc1`, the absorption maximum by setting is: (in CC#N) 254 nm; (in CCCCCC) 254 nm.
As for `F[B-]1(F)N(c2ccccc2)C=Cc2cccc[n+]21`, the absorption maximum by setting is: (in C1CCCCC1) 442 nm; (in C1CCOC1) 425 nm; (in CC#N) 412 nm; (in CC(C)=O) 422 nm; (in CCO) 418 nm; (in CCOC(C)=O) 427 nm. Also, the absorption maximum is, setting by setting: (in CO) 417 nm; (in O) 396 nm.
Take `CCc1ccccc1-c1c2ccccc2c(C#Cc2ccccc2)c2cc3ccccc3cc12`: the absorption maximum (in ClCCl) is on record as 522 nm.
Same read-out and setting: the result for `O=C1c2ccccc2C2=Nc3cccc[n+]3[B-](F)(F)N12` reads 361 nm; that for `S=P1(c2ccccc2)c2cccc3c4c5ccccc5c5ccccc5c4c4ccc1n4c23` (centres undefined), 422 nm.
On the same count and under the same terms, the result for `Cc1cc(C)c(C2=C3C=C(/C=C/C(=O)OCc4ccccc4)C=[N+]3[B-](F)(F)n3cc(/C=C/C(=O)OCc4ccccc4)cc32)c(C)c1` reads 576 nm.
Where the note is “in C1CCOC1”, `C1=Cc2ccccc2C(=Cc2ccc(C=C3c4ccccc4C=Cc4ccccc43)cc2)c2ccccc21` came in with an absorption maximum of 333 nm.
The molecule `O=c1c2cccc3cccc(c32)c2nc3c(F)c(F)c(F)c(F)c3n12` showed an absorption maximum (in ClCCl) of 382 nm.
Consider `COc1ccc2c(-c3nc(-c4cccc(C)c4)no3)cc(=O)oc2c1`, for which the absorption maximum by setting is: (in CCO) 401 nm; (in ClC(Cl)Cl) 403 nm.
For the molecule `F[B-]1(F)OC(c2ccccc2)=Nc2sc(-c3ccccc3)n[n+]21`, the absorption maximum (in C1CCOC1) worked out at 332 nm; the absorption maximum (in CC#N) was found to be 330 nm; the absorption maximum (in CCO) is listed as 328 nm; the absorption maximum (in CCOC(C)=O) was determined as 331 nm; the absorption maximum (in Cc1ccccc1) came to 337 nm; the absorption maximum (in ClC(Cl)Cl) turned out to be 335 nm. This molecule also came in with an absorption maximum (in ClCCl) of 333 nm.
Molecule `Cc1ccc2oc(-c3cc4cc(C)ccc4oc3=O)cc2c1` displayed an absorption maximum (in CC#N) of 372 nm; an absorption maximum (in CCOC(C)=O) of 374 nm; an absorption maximum (in CS(C)=O) of 377 nm; an absorption maximum (in Cc1ccccc1) of 378 nm; an absorption maximum (in O) of 351 nm.
The molecule `N#CC(/N=C/c1c(O)ccc2ccccc12)=C(C#N)/N=C/c1c(O)ccc2ccccc12` had an absorption maximum (in CC#N) of 520 nm.
Under “in ClCCl”, `CCCCCCOc1cc(C=C(C#N)C#N)c(OCCCCCC)cc1C=C(C#N)C#N` came in with an absorption maximum of 477 nm.
In turn, `c1ccc(-[n+]2c3ccc4cccc5c6cccc7c8cccc9ccc2c(c98)c(c67)c3c45)cc1` displayed an absorption maximum (in ClCCl) of 512 nm.
Where the note is “in ClCCl”, `COC(=O)C1=C(C(=O)OC)C2(c3cc([N+](=O)[O-])ccc3-c3ccc([N+](=O)[O-])cc32)C2(/C=C/c3ccccc3)c3cc(OC)c(OC)cc3CCN12` (centres undefined) returned an absorption maximum of 337 nm.
In the case of `CC(C)(C)c1ccc2oc3nc4oc5ccc(-n6c7ccccc7c7ccccc76)cc5c4cc3c2c1`, for the setting “in ClC(Cl)Cl”, the absorption maximum stood at 348 nm.
Take `COCCC1=Cc2nc1ccc1[nH]c(cc1CCOC)c1nc(c(O)cc3[nH]c2cc3CCOC)C(CCOC)=C1`: the absorption maximum (in Cc1ccccc1) was 680 nm.
Where the note is “in C1CCOC1”, `N#Cc1ccc(N)c(/C=C/C(F)(F)F)c1` displayed an absorption maximum of 348 nm.
In the case of `CCCC1=Cc2nc1ccc1[nH]c(cc1CCC)c1nc(c(OC)cc3[nH]c2cc3CCC)C(CCC)=C1`, the absorption maximum (in Cc1ccccc1) worked out at 682 nm.
Still for that read-out and setting: the result for `CC1(C)c2ccccc2N(c2ccc(-c3ccc4c(c3)c3cc(-c5ccc(N6c7ccccc7C(C)(C)c7ccccc76)cc5)ccc3c3nc(C#N)c(C#N)nc43)cc2)c2ccccc21` reads 405 nm.
On to `COc1ccc(C#Cc2nc3ccccc3nc2-c2cn(C)c3ccccc23)cc1`, for which the absorption maximum turned out to be 408 nm (in C1CCOC1); 407 nm (in CC#N); 408 nm (in CC(C)=O); 415 nm (in CC(C)O); 415 nm (in CCO); 405 nm (in CCOC(C)=O). Further, the absorption maximum by setting is: (in CO) 415 nm; (in Cc1ccccc1) 407 nm; (in ClCCl) 408 nm.
Consider `C/N=N/C`, for which the absorption maximum (in CCO) is 340 nm.
Take `CC(C)[Si](C#Cc1c2nsnc2c(C#C[Si](C(C)C)(C(C)C)C(C)C)c2nc3c(nc12)Cc1ccccc1-3)(C(C)C)C(C)C`: where the note is “in CCCCCC”, the absorption maximum was 540 nm.
Consider `O=c1oc2cc3ccccc3cc2nc1-c1ccccc1`, for which the absorption maximum was 348 nm (in CC#N), 350 nm (in CCCCCC), 346 nm (in CO) and 356 nm (in c1ccccc1).
Where the note is “in C1COCCO1”, `c1ccc(-c2cc(-c3ccccc3)cc(-c3ccccc3)c2)cc1` had an absorption maximum of 250 nm.
Molecule `Cc1cccc(C)c1N1C(c2ccccc2)=Cc2cccc[n+]2[B-]1(F)F` had an absorption maximum (in ClCCl) of 397 nm.
Turning to `O=C1C2=C3c4sccc4C=CN3C(=O)C2=C2c3sccc3C=CN12`, the absorption maximum by setting is: (in CN(C)C=O) 605 nm; (in ClC(Cl)Cl) 605 nm.
Consider `CCCC1=Cc2nc1ccc1[nH]c(cc1CCC)c1nc(c(N)cc3[nH]c2cc3CCC)C(CCC)=C1`, for which the absorption maximum (in Cc1ccccc1) is 710 nm.
Consider `COC1(OC)C2(Cl)c3nc4cc(-c5cccs5)ccc4nc3C1(Cl)C1C[C@H]3[C@@H](CC12)C1(Cl)c2nc4cc(-c5cccs5)ccc4nc2C3(Cl)C1(OC)OC` (some centres undefined), for which the absorption maximum turned out to be 366 nm (in CC#N); 358 nm (in CCCCCC); 362 nm (in CCOC(C)=O); 369 nm (in CO); 364 nm (in Cc1ccccc1); 368 nm (in ClC(Cl)Cl). This molecule returned an absorption maximum (in ClCCl) of 369 nm.
Consider `CN(C)c1ccc2nc(-c3ccc(C(=O)O)cc3)sc2c1`, for which the absorption maximum reads like this: (in C1CCCCC1) 387 nm; (in CC#N) 390 nm; (in CC(C)O) 374 nm; (in CO) 377 nm; (in CS(C)=O) 400 nm; (in ClC(Cl)Cl) 400 nm. The molecule further gave an absorption maximum (in c1ccccc1) of 394 nm.
